Source: US4587218A, “Novel bioconverting microorganisms” (priority 1983, dated 1986)

Experiments:
[1] = tested on: Cultures ATCC 23342, ATCC 31683, CSV 558 and CUC 014; assay: Sensitivity to nine antibiotics, all four cultures; assay type: cell-based, Actinoplanes missouriensis; conditions: identical pattern
Procedure: Temperature range, NaCl and sucrose tolerances, pH range, and antibiotic sensitivity were determined using ISP No. 2 (yeast-malt extract agar) plates. Plates were incubated at 30° C. for 14 days. The temperatures tested were 5°, 10°, 15°, 20°, 25°, 30°, 37°, 40°, 45°, 50° and 55° C.
Antibiotic sensitivity was determined using sensitivity discs padded on the surface of seeded agar plates. The following antibiotics were used: cephalothin (sodium) 30 μg, erythromycin (estolate) 15 μg, chloromycetin 30 μg, novobiocin 30 μg, penicillin (G) 10 units, rifampin 5 μg, streptomycin 10 μg, tetracycline 30 μg and vancomycin 30 μg.

[2] = tested on: mutants (ATCC 31683, CSV 558 and CUC 014); assay: Buffer toxicity at pH 7.0, mutant strains; conditions: all the mutants; buffers 0.05M adjusted to pH 7.0, growth checked
[3] = tested on: wild-type strain (ATCC 23342); assay: Buffer toxicity at pH 7.0, wild-type strain; conditions: buffers 0.05M adjusted to pH 7.0, growth checked

| SMILES | sensitivity to nine antibiotics [1] | sensitivity to citric acid [2] | sensitivity to citric acid [3] |
| --- | --- | --- | --- |
| CC1(C)S[C@@H]2[C@H](NC(=O)Cc3ccccc3)C(=O)N2[C@H]1C(=O)O [Penicillin G] | Resistance |  |  |
| CO[C@@H]1[C@@H](OC(N)=O)[C@@H](O)[C@H](Oc2ccc3c(O)c(NC(=O)c4ccc(O)c(CC=C(C)C)c4)c(=O)oc3c2C)OC1(C)C [Novobiocin] | Resistance |  |  |
| O=C(O)CC(O)(CC(=O)O)C(=O)O [citric acid] |  | sensitive | not sensitive |
